In brackets after ≈: the same amount, converted by molar mass. Where two headings read alike, the source gives them in different places.
Legend:
[1] = molecular target: MvitPBP1 (Maruca vitrata, UniProt A0A0K0K7G1); experiment: Fluorescence competitive binding assay with 1-NPN probe, recombinant MvitPBP1
Procedure: (§1) Fluorescence binding activity was determined according to the method of Sun et al.[33]. Emission fluorescence spectra were recorded on a Hitachi F-4500 at 25 °C in a right angle configuration, with a 1 cm light path quartz cuvette and 5 nm slits for both excitation and emission. The protein was dissolved in 20 mM Tris-HCl buffer (pH 7.4) and ligands were added as 1 mM methanol solutions. To measure the affinity of the fluorescent ligand 1-NPN to recombinant target proteins, a 2 μM protein solution in 20 mM Tris-HCl (pH 7.4) was titrated with aliquots of […] ligand in methanol to final concentrations of 2–16 μM. After each PBP or ligand was added into the reaction buffer, the mixture solution was incubated for 2 min at room temperature. The probe was excited at 337 nm and emission spectra were recorded between 380 and 450 nm. The affinities of the other ligands were measured in competitive binding assays. A solution of the protein and 1-NPN at a concentration of 2 μM was titrated with 1 mM methanol solutions of each competitor over concentration ranges of 2–24 μM, depending on the ligand (the solubilities are (EPA estimates): E10E12-16:Ald, 0.5 uM; E10-16:Ald, 0.3 uM; E10E12-16:OH, 0.17 uM; and E10-16:OH, 0.97 uM in ChemSpider). The dissociation constant for 1-NPN and the stoichiometry of binding were obtained by processing the data using Prism software. Dissociation constants of the competitors were calculated from the corresponding IC50 values (concentrations of ligands halving the initial fluorescence value of 1-NPN), using the equation: Ki = [IC50]/1 + [1-NPN]/K1-NPN, where [1-NPN] is the free concentration of 1-NPN and K1-NPN is the dissociation constant of the coplex protein/1-NPN.

[2] = molecular target: MvitPBP2 (Maruca vitrata, UniProt A0A1D6YJA8); experiment: Fluorescence competitive binding assay with 1-NPN probe, recombinant MvitPBP2
Procedure: as §1

[3] = parameters: method as in ChemSpider; conditions: ref ChemSpider; cited from earlier work
[4] = tested on: MvitGOBP2; parameters: method as in PMID 26517714; conditions: read-out: Ligand concentration at which fluorescence intensity of the MvitGOBP2/1-NPN complex decreased to approximately 50%; cited from earlier work
[5] = tested on: MvitPBP3 (Maruca vitrata); experiment: Fluorescence competitive binding assay with 1-NPN probe, recombinant MvitPBP3
Procedure: as §1, with “A solution of the protein and 1-NPN at a concentration of 2 μM was titrated with 1 mM methanol solutions of each competitor over concentration ranges of 2–24 μM, depending on the ligand (the solubilities are (EPA estimates): E10E12-16:Ald, 0.5 uM; E10-16:Ald, 0.3 uM; E10E12-16:OH, 0.17 uM; and E10-16:OH, 0.97 uM in ChemSpider). The dissociation constant for 1-NPN and the stoichiometry of binding were obtained by processing the data using Prism software.” left out

[6] = MvitPBP1, 2 μM protein and 1-NPN, 20 mM Tris-HCl pH 7.4, read-out: IC50 (ligand concentration displacing 50% of the fluorescence intensity of the MvitPBPs/1-NPN complex)
[7] = MvitPBP1, calculated from IC50, read-out: Ki (dissociation constant)
[8] = MvitPBP2; 2 μM protein and 1-NPN, 20 mM Tris-HCl pH 7.4; read-out: IC50 (ligand concentration displacing 50% of the fluorescence intensity of the MvitPBPs/1-NPN complex)
[9] = MvitPBP2; calculated from IC50; read-out: Ki (dissociation constant)

Chain of MvitPBP1 (A0A0K0K7G1 entry or part of it): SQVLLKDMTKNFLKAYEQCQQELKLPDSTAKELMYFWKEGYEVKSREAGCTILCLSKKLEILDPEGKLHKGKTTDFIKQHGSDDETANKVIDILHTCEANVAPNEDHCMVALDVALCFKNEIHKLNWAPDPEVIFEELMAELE
Chain of MvitPBP2 (A0A1D6YJA8 entry or part of it): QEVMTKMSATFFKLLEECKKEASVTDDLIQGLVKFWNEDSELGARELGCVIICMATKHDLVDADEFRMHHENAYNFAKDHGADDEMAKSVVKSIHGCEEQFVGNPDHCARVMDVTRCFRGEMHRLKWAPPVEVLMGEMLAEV
Chain of MvitPBP3 (Maruca vitrata) (A0A1D6YJA8 entry or part of it): as above

IC50 [1, 6] [µM] | Ki [1, 7] [µM] | IC50 [2, 8] [µM] | Ki [2, 9] [µM] | Compound | Solubility (EPA estimates) [3] [µM] | also measured
7.64 | 6.69 | 6.82 | 5.9 | CCCCC/C=C/CCCCCCCCCO [E10-16: OH, (E)-10-Hexadecen-1-ol] | 0.97 (≈ 0.233 µg/mL) | –
22.5 | 19.7 | – | – | Oc1cccc2[nH]ccc12 [1H-indol-4-ol] | – | –
– | – | – | – | CCCCCCCCOC(=O)CCC [Butanoic acid octyl ester] | – | IC50 [4]: 8.5 µM
– | – | – | – | c1ccc(Nc2cccc3ccccc23)cc1 [1-NPN, N-phenyl-1-naphthylamine, reference compound] | – | Kd [1]: 13 µM; Kd ([2]; read-out: Dissociation constant of the MvitPBP2/1-NPN complex; calculated by Scatchard plots): 11.9 µM
5.68 | 4.97 | 5.89 | 5.09 | CCC/C=C/C=C/CCCCCCCCC=O [E10E12-16: Ald, (E,E)-10,12-Hexadecadienal] | 0.5 (≈ 0.118 µg/mL) | –
– | – | – | – | CC(=O)c1ccc(C(C)=O)cc1 [1,4-diacetyl benzene] | – | IC50 [1]: 19.6 µM; Ki [1]: 17.2 µM
7.36 | 6.44 | 5.53 | 4.78 | CCCCC/C=C/CCCCCCCCC=O [E10-16: Ald, (E)-10-Hexadecenal] | 0.3 (≈ 0.0715 µg/mL) | –

Compound | IC50 [1, 6] [µM] | Ki [1, 7] [µM] | IC50 [2, 8] [µM] | Ki [2, 9] [µM] | Solubility (EPA estimates) [3] [µM] | also measured
CCC/C=C/C=C/CCCCCCCCCO [E10E12-16: OH, (E,E)-10,12-Hexadecadien-1-ol] | 8.84 | 7.73 | 5.91 | 5.11 | 0.17 (≈ 0.0405 µg/mL) | –
CC(C=O)Cc1ccccc1 (stereo not shown) [2-methyl-3-phenylpropanal] | – | – | – | 18.1 | – | IC50 ([2]; read-out: IC50 (ligand concentration displacing 50% of the fluorescence intensity of the MvitPBPs/1-NPN complex); MvitPBP2; 2 μM protein and 1-NPN, 20 mM Tris-HCl pH 7.4): 21 µM; Ligand binding capacity (in words) [5]: bonded strongly; IC50 [4]: 3.81 µM

From paper PMC5048296, “Sex pheromone recognition and characterization of three pheromone-binding proteins in the legume pod borer, Maruca vitrata Fabricius (Lepidoptera: Crambidae)” (Scientific Reports, 2016)
